Laboratory results: ChEMBL document CHEMBL1201862, “PubChem BioAssay data set” (2004)
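96-well plates; 48 h exposure; 5 concentrations. Endpoints by linear interpolation between flanking doses. Not reached: highest tested concentration assigned. At the GI50, growth is halved.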 Active and inactive are the calls of the source. Cut-off read from the data, not from the text of the source: active = GI50 up to about 1.1 µM and inactive = higher.

Legend:
Test in all cases: NCI tumour cell line growth inhibition, 48 h
[1] = tested on: SK-MEL-2
[2] = tested on: SF-268
[3] = tested on: IGROV-1
[4] = tested on: SNB-75
[5] = tested on: EKVX
[6] = tested on: A498
[7] = tested on: SN12C
[8] = tested on: HCC 2998
[9] = tested on: NCI-H23
[10] = tested on: SNB-19
[11] = tested on: UACC-257
[12] = tested on: UACC-62
[13] = tested on: COLO 205
[14] = tested on: M14
[15] = tested on: HCT-116
[16] = tested on: HCT-15

| SMILES | GI50 [1] | GI50 [2] | GI50 [3] | GI50 [4] | GI50 [5] | GI50 [6] | GI50 [7] | GI50 [8] | GI50 [9] | GI50 [10] | GI50 [11] | GI50 [12] | GI50 [13] | GI50 [14] | GI50 [15] | GI50 [16] [µM] |
| --- | --- | --- | --- | --- | --- | --- | --- | --- | --- | --- | --- | --- | --- | --- | --- | --- |
| CC(C)CC(NC(=O)OC(C)(C)C)C(=O)Nc1ccc(Nc2nc(F)nc(-c3c4ccccc4c4n3CCS4)n2)cc1 (stereo unspecified) | 18.2 µM (inactive) | 31.4 µM (inactive) | 24 µM (inactive) | 22.2 µM (inactive) | 19.7 µM (inactive) | 26.2 µM (inactive) | 21.6 µM (inactive) | 18 µM (inactive) | 18.7 µM (inactive) | 18.2 µM (inactive) | 23.6 µM (inactive) | 17.2 µM (inactive) | 18.9 µM (inactive) | 20.2 µM (inactive) | 23.5 µM (inactive) | 16.3 |
| CCOC(=O)C(NC(=O)c1nc[nH]c1[N+](=O)[O-])C(C)C (stereo unspecified) | > 100 µM (inactive) | > 100 µM (inactive) | > 100 µM (inactive) | > 100 µM (inactive) | 94 µM (inactive) | > 100 µM (inactive) | > 100 µM (inactive) | 66.4 µM (inactive) | 31.3 µM (inactive) | > 100 µM (inactive) | 94.8 µM (inactive) | > 100 µM (inactive) | 82 µM (inactive) | > 100 µM (inactive) | > 100 µM (inactive) | > 100 |
| COC(=O)C(=O)C(C(=O)OC)C(=O)C(=O)Nc1cc(Cl)c(C)cc1S(=O)(=O)O (stereo unspecified) | > 100 µM (inactive) | > 100 µM (inactive) | > 100 µM (inactive) | 74.3 µM (inactive) | > 100 µM (inactive) | > 100 µM (inactive) | > 100 µM (inactive) | > 100 µM (inactive) | > 100 µM (inactive) | > 100 µM (inactive) | > 100 µM (inactive) | > 100 µM (inactive) | > 100 µM (inactive) | > 100 µM (inactive) | > 100 µM (inactive) | > 100 |
| O=C(Nc1ccc(Cl)cc1)c1cccc([N+](=O)[O-])c1O | 2.02 µM (inactive) | 4.67 µM (inactive) | 3.03 µM (inactive) | 3.52 µM (inactive) | 2.98 µM (inactive) | 1.95 µM (inactive) | 4.09 µM (inactive) | 1.99 µM (inactive) | 2.43 µM (inactive) | 2.92 µM (inactive) | 2.24 µM (inactive) | 1.85 µM (inactive) | 2.91 µM (inactive) | 3.63 µM (inactive) | 3.94 µM (inactive) | 4.84 |
| COC(=O)C12C3C4C5(C(=O)OC)C(C1C35C(=O)N(C(C)C)C(C)C)C42C(=O)N(C(C)C)C(C)C (stereo unspecified) | > 50 µM (inactive) | > 50 µM (inactive) | > 50 µM (inactive) | > 35.5 µM (inactive) | > 50 µM (inactive) | > 50 µM (inactive) | > 50 µM (inactive) | > 50 µM (inactive) | > 50 µM (inactive) | > 50 µM (inactive) | > 50 µM (inactive) | > 50 µM (inactive) | > 50 µM (inactive) | > 50 µM (inactive) | 14.7 µM (inactive) | > 23.3 |
| CC(C)C1NC(=O)[C@H](C)OC(=O)[C@@H](C(C)C)NC(=O)[C@@H](C)OC(=O)C(C(C)C)NC(=O)[C@H](C)OC1=O (stereo partly specified) | > 100 µM (inactive) | > 100 µM (inactive) | > 100 µM (inactive) | > 100 µM (inactive) | > 100 µM (inactive) | > 100 µM (inactive) | > 100 µM (inactive) | > 100 µM (inactive) | > 100 µM (inactive) | > 100 µM (inactive) | > 100 µM (inactive) | > 100 µM (inactive) | > 54.6 µM (inactive) | > 95.1 µM (inactive) | > 86.5 µM (inactive) | 17.5 |
| O=c1c(O)c(-c2ccc(O)c(O)c2)oc2cc(O)cc(O)c12 [QUERCETIN] | 88.5 µM (inactive) | 46.7 µM (inactive) | 59.3 µM (inactive) | 49 µM (inactive) | 41.2 µM (inactive) | > 100 µM (inactive) | > 100 µM (inactive) | > 100 µM (inactive) |  | 61.2 µM (inactive) | > 100 µM (inactive) | 31.2 µM (inactive) | 33.6 µM (inactive) | > 100 µM (inactive) | 46.1 µM (inactive) | 36.8 |
